From patent US7829305B2, “Method for monitoring the presence of biofilmforming microorganisms in paper industry” (Kemira Oyj, priority 2003, dated 2010)

Each compound was assayed on biofilms formed in a paper machine (assay: Inactivation of biofilms pre-grown in situ on sampler pegs; re-growth of new biofilm in the culturing step, safranin staining, visual evaluation). Conditions: biofilm grown 68 h in clear filtrate silo of neutral fine paper machine at 52° C.; treatment 1 to 50 ppm (active substance), stagnant 52° C., 2 h; culturing in R2-broth 250 rpm, 52° C., 17 h; safranin, evaluated visually.
Type: cell-based
Text: In this experiment one embodiment of the sampler device of the invention is used to illustrate the method of the invention for determining the effect of several anti-biofilm agents in inactivation of biofilms formed in a paper machine.
In this embodiment the sampler device comprises 12 stainless steel pegs fixed from one end on a stainless steel lid. The lid with the pegs is presented in FIG. 1 together with a treatment plate with 12 wells adapted to receive the pegs when the lid is placed on the plate. Suitably the lid was designed to be complementary with the commercially available 12-well polystyrene plates.
Three sampler lids are immersed in the clear filtrate silo of a neutral fine paper machine and allowed to hang immersed in said filtrate at the temperature of 52° C. of the process water, for 68 h. Then the samplers are removed, rinsed once with sterilized tap water, and each lid is placed on a 12-well treatment plate so that the pegs with biofilms formed in situ in the process on the surface thereof are immersed in the treatment solution within the wells, each peg in one well, while being supported at the one end by the lid.
Each well of a treatment plate contains 3.5 ml of sterilized tap water alone (reference samples) or 3.5 ml of sterilized tap water together with an anti-biofilm agent at a concentration of 1 to 50 ppm (active substance). The maximum volume of the wells is used so that almost the whole length of the pegs will be exposed to the anti-biofilm agents (the treatment solution). The tested anti-biofilm agents are BCDMH (Bromo-chloro-5,5-dimethyl hydantoine), a mixture of 5-chloro-2-methyl-4-isothiazolin-3-one and 2-methyl-4-isothiazolin-3-one, THPS (tetrakis(hydroxy-methyl)phosphomiumsulphate, DBNPA (2,2-dibromo-2-cyanoacetamide), glutar-aldehyde, MBT (methylene-bis(thiocyanate)), BNPD (bromo-2-nitropropan-1,3-diol), all of which are commercially available.
The anti-biofilm treatment step is carried out by incubating the plates with the lid thereon stagnant at 52° C. for 2 h. After the treatment step the lids are removed from the plate and rinsed three times with sterilized tap water and then placed on the 12-well culturing plates, which are similar to the treatment plates, but the wells contain 2.5 ml of sterile R2-broth (Difco). The culturing plates (plate+lid with the pegs immersed in the wells) are shaken at 250 rpm, at 52° C., for 17 h.
Finally, the pegs and growth media are removed from the wells, the wells are rinsed once with tap water and the microbes adhered on the walls of the wells are stained with safranin. The amount of biofilm produced by the microbes that survived alive through the treatment step with anti-biofilm agents is evaluated visually.

Question: Which “formation of new biofilm during the culturing step after treatment of the biofilm on the pegs” value (shortened to “formation”) does the source give for `CC1(C)C(=O)N(Br)C(=O)N1Cl` [BCDMH, Bromo-chloro-5,5-dimethyl hydantoine] here?
Answer: The value was “no new biofilm is formed”.

Question: Which “formation” value does the source give for `O=[N+]([O-])C(Br)(CO)CO` [BNPD, bromo-2-nitropropan-1,3-diol] here?
Answer: The value was “still capable to form new biofilm”.

Question: With `N#CC(Br)(Br)C(N)=O` [DBNPA, 2,2-dibromo-2-cyanoacetamide] as the compound, how does the “formation” value read?
Answer: Its value is “no new biofilm is formed”.

Question: How did the “formation” value turn out when `N#CSCSC#N` [MBT, methylene-bis(thiocyanate)] was run?
Answer: The value was “still capable to form new biofilm”.

Question: Which “formation” value does the source give for `O=S(=O)([O-])[O-].OC[P+](CO)(CO)CO.OC[P+](CO)(CO)CO` [THPS, tetrakis(hydroxy-methyl)phosphomiumsulphate] here?
Answer: Its value is “no new biofilm is formed”.

Question: Which “formation” value does the source give for `O=CCCCC=O` [glutaraldehyde] here?
Answer: The value was “no new biofilm is formed”.

Same assay, conditions: treatment 2 h at 52° C.; culturing 17 h at 52° C. in R2-broth; concentration as active substance

Question: How did the “lowest concentration of anti-biofilm agent achieving prevention of re-growth of new biofilm in the culturing step” value turn out when `N#CC(Br)(Br)C(N)=O` [DBNPA, 2,2-dibromo-2-cyanoacetamide] was run?
Answer: The value was 5 ppm.
